The record followed here is ChEMBL document CHEMBL3259601, “Synthesis of novel 1,2,3-triazole substituted-N-alkyl/aryl nitrone derivatives, their anti-inflammatory and anticancer activity” (Eur J Med Chem, 2014).

For orientation: IC50 means the concentration at which inhibition is half-maximal.

In experiment [1] the test system is PC-3. The experiment is described as follows: Cytotoxicity against human PC3 cells assessed as growth inhibition after 24 hrs by MTT assay. The format is functional, cell-based. Conditions: PC-3, 24 h.
For experiment [2], the system named is PC-3. Kind of experiment: Induction of apoptosis in human PC3 cells assessed as activation of caspase-3 using AFC conjugated Ac-DEVD as substrate measured per mg of protein at 1 uM after 12 hrs by fluorescence assay (reference value: 1055.6 +/- 108.2 FU/min). The format is functional.
For experiment [3], the system named is PC-3. Kind of experiment: Induction of apoptosis in human PC3 cells assessed as activation of caspase-3 using AFC conjugated Ac-DEVD as substrate measured per mg of protein at 2 uM after 12 hrs by fluorescence assay (reference value: 1055.6 +/- 108.2 FU/min). The format is functional.
Experiment [4] relates to PC-3. The experiment is described as follows: Induction of apoptosis in human PC3 cells assessed as activation of caspase-3 using AFC conjugated Ac-DEVD as substrate measured per mg of protein at 1 uM after 24 hrs by fluorescence assay (reference value: 2115.3 +/- 83.2 FU/min). The format is functional.
Experiment [5] concerns PC-3. The experiment is described as follows: Induction of apoptosis in human PC3 cells assessed as activation of caspase-3 using AFC conjugated Ac-DEVD as substrate measured per mg of protein measured per mg of protein at 2 uM after 24 hrs by fluorescence assay (reference value: 2115.3 +/- 83.2 FU/min). The format is functional.
For experiment [6], the system named is PC-3. Kind of experiment: Induction of apoptosis in human PC3 cells assessed as activation of caspase-3 using AFC conjugated Ac-DEVD as substrate measured per mg of protein at 1 uM after 36 hrs by fluorescence assay (reference value: 2192.3 +/- 115.9 FU/min). The class given is functional.
For experiment [7], the system named is PC-3. Kind of experiment: Induction of apoptosis in human PC3 cells assessed as activation of caspase-3 using AFC conjugated Ac-DEVD as substrate measured per mg of protein at 2 uM after 36 hrs by fluorescence assay (reference value: 2192.3 +/- 115.9 FU/min). The format is functional.
The test system of experiment [8] is PC-3. Kind of experiment: Induction of apoptosis in human PC3 cells assessed as activation of caspase-3 using AFC conjugated Ac-DEVD as substrate measured per mg of protein at 1 uM after 48 hrs by fluorescence assay (reference value: 2642.4 +/- 37.5 FU/min). The format is functional.
Experiment [9] concerns PC-3. The experiment is described as follows: Induction of apoptosis in human PC3 cells assessed as activation of caspase-3 using AFC conjugated Ac-DEVD as substrate measured per mg of protein at 2 uM after 48 hrs by fluorescence assay (reference value: 2642.4 +/- 37.5 FU/min). The class given is functional.

With `COc1cccc2c1C(=O)c1c(O)c3c(c(O)c1C2=O)C[C@@](O)(C(=O)CO)C[C@@H]3O[C@H]1C[C@H](N)[C@H](O)[C@H](C)O1` [DOXORUBICIN], the IC50 in [1] amounted to 600 nM. Moreover, the Activity in experiment [2] was found to be 3033.7 FU/min; in experiment [3], 3331.1 FU/min; in experiment [4], 3791.8 FU/min; in experiment [5], 4007.5 FU/min; in [6], 4794.2 FU/min; in experiment [7], 4994.1 FU/min. Also, the Activity was 6690.3 FU/min in experiment [8] and 7240.4 FU/min in experiment [9].
